In EPA's ToxValDB 9.5 (doi:10.2903/j.efsa.2014.3736):
Values after ≈ are worked out from the molar mass of the structure shown.

Columns and labels:
Tagia sp. = details: acute; duration: 14 days; mortality
Bibionidae = details: chronic/long-term; duration: 23 days; other
Anas platyrhynchos = details: reproductive
[1] = short-term; duration: 28 days; no effects
Daphnia magna = details: chronic/long-term; duration: 21 days; mortality
Colinus virginianus = details: acute, oral, mortality
Plant = details: chronic/long-term; duration: 28 days; frond number

Which LC50 (Tagia sp.) does the source give for `C#CCN1C(=O)COc2cc(F)c(N3C(=O)C4=C(CCCC4)C3=O)cc21` [Flumioxazin] here?
Its LC50 is greater than 982 mg/kg.

And the NOEC (Bibionidae)?
Its NOEC is 0.73 mg/kg.

And the NOEL (Anas platyrhynchos)?
The NOEL was 34.3 mg/kg-day.

And the LD50 (Rattus norvegicus; acute, mortality)?
The LD50 was greater than 5000 mg/kg-day.

And the NOAEL (Rattus norvegicus; chronic, duration: 2 years, hematological)?
Its NOAEL is 1.8 mg/kg-day.

What about the NOAEL (Rattus norvegicus; developmental, oral, gavage, development) of the same compound?
Its NOAEL is 10 mg/kg-day.

What about the NOAEL (Rattus norvegicus; reproduction developmental, growth) of the same compound?
Its NOAEL is 7.5 mg/kg-day.

What about the NOAEL (Rattus norvegicus; subchronic, duration: 90 days, oral, hematological) of the same compound?
The NOAEL was 2.2 mg/kg-day.

And the LC50 (Oncorhynchus mykiss; acute, duration: 96 hours, mortality)?
The LC50 was 2.3 µg/mL (≈ 6.49 µM).

And the NOEC (Oncorhynchus mykiss; chronic/long-term, duration: 21 days, growth)?
The NOEC was 0.37 mg/L.

And the NOEC [1]?
Its NOEC is 0.15 mg/L.

What about the NOEC (Daphnia magna) of the same compound?
Its NOEC is 0.1 mg/L.

And the LD50 (Colinus virginianus; diet)?
The LD50 was greater than 1510 mg/kg-day.

What about the LD50 (Colinus virginianus) of the same compound?
The LD50 was greater than 2250 mg/kg-day.

What about the NOEC (Plant) of the same compound?
Its NOEC is 6.3 µg/L.
